Marks after values point to notes of the source that are not given here.
Key:
Format in all cases: in vivo, mouse
male ICR mice = assay: MES (maximal electroshock seizure) test, mice; conditions: for ED50: Mus musculus, oral, at peak time
Procedure: The obtained results are shown as mean±sem. The difference between the groups was statistically analyzed by ANOVA, and then, further examined by Dunnett's test or Bonferroni test. If p is less than 0.05, it was determined that the difference between the groups had statistical significance.

[1] = tested on: mice expressing mutated human SOD1-G93A transgene; assay: Survival of ALS transgenic mice; conditions: TG G93A SOD1 mice
[2] = tested on: mice expressing mutated human SOD1-G93A transgene; assay: Clinical scoring and disease onset of ALS transgenic mice; conditions: TG G93A SOD1 mice
From the text: Altogether 80 male and female mice expressing mutated human SOD1-G93A transgene (heterozygous TgN-SOD1-G93A-1Gur; Gurney et al. (1994), Science 264, 1772. 1775) and 15 of their wild type littermates were used for the experiments. […] PCR was used to genotype the mice before the start of the experiments.
The animals were grouped as follows: • <Non-transgenic male mice> • Group 1: 15 WT mice treated with vehicle (30% (w/v) polyethyleneclycol 400 (PEG400), once a day, p.o.) starting at 60 days of age and continuing until end-point • <Transgenic G93A SOD1 male mice: ALS-transgenic mice> • Group 2: 20 transgenic mice treated with vehicle (30% (w/v) polyethyleneclycol 400 (PEG400), once a day, p.o.) staring at 60 days of age and continuing until end-point • Group 3: 20 transgenic mice treated with a drug (Compound 1) at dose of 3 mg/kg (once a day, p.o.) staring at 60 days of age and continuing until end-point • Group 4: 20 transgenic mice treated with Compound 1 at dose of 10 mg/kg (once a day, p.o.) staring at 60 days of age and continuing until end-point • Group 5: 20 transgenic mice treated with Compound 1 at dose of 50 mg/kg (once a day, p.o.) staring at 60 days of age and continuing until end-point
Treatment with drug (Compound 1) was started at the age of 60 days and continued until the mice reached 150 days of age. The drug was administered p.o. once a day between 8-12 am. The drug solubilized in 30% (w/v) polyethyleneclycol 400 (PEG400), and the obtained solution was briefly vortexed and sonicated at RT (room temperature) for 20 minutes. Treatment solution of the drug was prepared fresh every day. […]
The earliest clinical signs were tremor and shaking of their limbs when the mice are suspended briefly in the air by their tails. […] Animals were scored by lifting them gently by the base of their tails and observing them for tremors, stiffness and their ability to extend their limbs. […]
Onset of disease for each mouse was recorded when they reach a disease stage 4.

[3] = tested on: mice expressing mutated human SOD1-G93A transgene; assay: Body weight of ALS transgenic mice; conditions: TG G93A SOD1 mice; 3, 10, 50 mg/kg p.o. once a day; compared with WT group
From the text: (§1) Altogether 80 male and female mice expressing mutated human SOD1-G93A transgene (heterozygous TgN-SOD1-G93A-1Gur; Gurney et al. (1994), Science 264, 1772. 1775) and 15 of their wild type littermates were used for the experiments. […] PCR was used to genotype the mice before the start of the experiments. […]
Since weight loss has proven to correlate well with disease development and is easily scored co-jointly with disease stage, the mice were weighted once-a-week at the age of 60 days to 90 days and three times a week after they reach the age of 91 days (13 weeks).

[4] = tested on: mice expressing mutated human SOD1-G93A transgene; assay: Open field test of ALS transgenic mice; conditions: TG G93A SOD1 mice; 3, 10, 50 mg/kg p.o. once a day; baseline, day 90, day 110
Procedure: as §1
Open field test measurements were performed before the dosing is stated (baseline) and around day 90 (13th age week) and day 110 (16th age week). […] Mice were placed in the center of the chamber and their behaviors were recorded for 10 minutes. The following parameters were recorded: distance moved.

male mice (ICR) [5] = assay: Muscle relaxation: grip strength test (forelimbs); conditions: i.p., 120 mg/kg administered
Procedure: (§2) For testing, male mice (ICR) were purchased from ORIENT BIO INC. (Korea), divided into several groups with 6 mice in each group, and were adapted for 4-5 days. The mice having the weight ranging from 19 g to 26 g were employed for the test. The pharmacological effect of the test compounds on muscle relaxation was evaluated by Rotarod test, grip strength test, and muscular force (wire hang) test. All mice were adapted to the test environment at one hour before starting the tests. The pharmacological effects of all the test compounds were evaluated by administration through peritoneal cavity of the mice (10 ul/g, bw).
A grip strength test using the test animals' forelimbs was performed using an instrument equipped with triangle ring and designed so as to easily grip with the forelimbs of experimental animals, manufactured from Ugo Basile Inc. (Ugo Basile, Mode147106, Italy). […] The mouse was made to grip the rod with its forelimbs, and its tail was pulled, where the force at which the mouse detached from the rod was recorded. […] This experimentation was conducted according to the method described in the reference, ‘Nevins et al. (1993) Quantitative grip strength assessment as a means of evaluating muscle relaxation in mice. […]
(§3) The results of muscle relaxation activity of the phenyl carbamate compounds measured in above Experimental Examples 1.2 to 1.4 are shown in following Table 3.

male mice (ICR) [6] = assay: Muscle relaxation: wire hang test; conditions: i.p., 100 mg/kg administered
Procedure: as §2
This experimentation was conducted using a metal wire of 30 cm in length, which was suspended between two pillars at a height of about 40 cm from the bottom covered with a soft pad. […] Each mouse was made to grip the wire using two forelimbs, and the elapse time before the mouse fell off from the wire to the pad on the bottom was recorded in seconds. Each mouse was given 5 opportunities for this test at an interval of 2 minutes period. The highest 3 records among the test opportunities were selected and the mean value was used as the test result. […]
as §3

[7] = group treated with 10 mg/kg p.o. once a day

| Structure (SMILES) | MES test (po) Peak Time (male ICR mice) [h] | ED50 (male ICR mice) [mg/kg] | further results |
| --- | --- | --- | --- |
| C[C@H](OC(N)=O)[C@@H](O)c1c(Cl)cccc1Cl [Compound 37, 1-(2,6-dichlorophenyl)-(S)-1-hydroxypropyl-(S)-2-carbamate] | 0.25 |  |  |
| CC(C)[C@H](OC(N)=O)[C@@H](O)c1ccccc1Cl [Compound 9, 1-(2-chlorophenyl)-(S)-1-hydroxy-3-methyl-butyl-(S)-2-carbamate] | 0.5 | 67.1 |  |
| CC[C@H](OC(N)=O)[C@@H](O)c1ccccc1Cl [Compound 6, 1-(2-chlorophenyl)-(S)-1-hydroxybutyl-(S)-2-carbamate] | 1 | 22.2 |  |
| C[C@@H](OC(N)=O)[C@H](O)c1c(Cl)cccc1Cl [Compound 46, 1-(2,6-dichlorophenyl)-(R)-1-hydroxypropyl-(R)-2-carbamate] | 1 | 35.2 |  |
| CC[C@H](OC(N)=O)[C@@H](O)c1c(Cl)cccc1Cl [Compound 40, 1-(2,6-dichlorophenyl)-(S)-1-hydroxybutyl-(S)-2-carbamate] |  | 46.9 |  |
| CC[C@H](OC(N)=O)[C@@H](O)c1ccc(Cl)cc1Cl [Compound 39, 1-(2,4-dichlorophenyl)-(S)-1-hydroxybutyl-(S)-2-carbamate] | 1 | 41.2 |  |
| C[C@H](OC(N)=O)[C@@H](O)c1ccccc1Cl [Compound 1, 1-(2-chlorophenyl)-(S)-1-hydroxypropyl-(S)-2-carbamate] | 2 |  | rate (%) of survivor according to survival time (FIG. 1) ([1]; 3, 10, 50 mg/kg p.o. once a day from 60 days of age, early stage of ALS): survival time is extended; effect to increase the survival rate at early stage of ALS (FIG. 1) [1, 7]: especially remarkable; rate (%) of survivor according to disease onset time (FIG. 2) ([2]; 3, 10, 50 mg/kg p.o. once a day, onset = disease stage 4): delay the disease onset; clinical score of each group (FIG. 4) ([2]; 3, 10, 50 mg/kg p.o. once a day, scale 1 to 5, compared to TG vehicle group): clinical scores were increased by administration of the drug in the dose-dependent manner; effect to delay the disease onset (FIG. 2) [2, 7]: especially remarkable; body weight of each group (FIG. 3) [3]: body weight loss compared with WT group was decrease by administration of the drug in the dose-dependent manner; distance moved, open field test (FIG. 5) [4]: some differences between treatments group of transgenic mice |
| C[C@@H](OC(N)=O)[C@H](O)c1ccccc1F [Compound 64, 1-(2-fluorophenyl)-(R)-1-hydroxypropyl-(R)-2-carbamate] |  |  | Grip strength: effect (%) compared to that of control treated with vehicle only (male mice (ICR) [5]): 120 ^a (35.4%); Wire hang: effect (%) compared to that of control treated with vehicle only (male mice (ICR) [6]): 100 ^a (30.8%) |
| CC(C)[C@H](OC(N)=O)[C@@H](O)c1c(Cl)cccc1Cl [Compound 42, 1-(2,6-dichlorophenyl)-(S)-1-hydroxy-3-methyl-butyl-(S)-2-carbamate] | 0.5 | 35.2 |  |
| C[C@H](OC(N)=O)[C@H](O)c1ccccc1Cl [Compound 5, 1-(2-chlorophenyl)-(R)-1-hydroxypropyl-(S)-2-carbamate] | 0.5 |  |  |
| C[C@H](OC(N)=O)[C@@H](O)c1cccc(Cl)c1Cl [Compound 38, 1-(2,3-dichlorophenyl)-(S)-1-hydroxypropyl-(S)-2-carbamate] | 2 | 91.4 |  |
| CC(OC(N)=O)C(O)c1ccccc1Cl (racemic) [Compound 3, 1-(2-chlorophenyl)-1-hydroxypropyl-2-carbamate] | 2 |  |  |
| C[C@H](OC(N)=O)[C@@H](O)c1ccc(Cl)cc1Cl [Compound 36, 1-(2,4-dichlorophenyl)-(S)-1-hydroxypropyl-(S)-2-carbamate] |  | 82.8 |  |
| C[C@@H](OC(N)=O)[C@H](O)c1ccccc1Cl [Compound 2, 1-(2-chlorophenyl)-(R)-1-hydroxypropyl-(R)-2-carbamate] | 0.25 |  |  |

From patent US20130203846A1, “PHENYL CARBAMATE COMPOUNDS FOR USE IN PREVENTING OR TREATING ALS” (Bio-Pharm Solutions Co., Ltd., priority 2011, published 2013)
